In ChEMBL document CHEMBL1152528, “Synthesis and kinase inhibitory activity of novel substituted indigoids” (Bioorg Med Chem, 2009) one finds IC50 data, which are given here for 26 compounds.

The target of assay [1] is Cyclin-dependent kinase 5/CDK5 activator 1 (Homo sapiens, UniProt Q00535). Description: Inhibition of GST-fused CDK5/p25 expressed in Escherichia coli assessed as [gamma-33P]ATP incorporation after 10 mins by scintillation counting.
The target of assay [2] is Glycogen synthase kinase-3 (Sus scrofa, UniProt B2LUN4+I6LNT8). Description: Inhibition of porcine brain GSK3alpha/beta assessed as [gamma-33P]ATP incorporation after 30 mins by scintillation counting.
Assay [3] in a line: Inhibition of Marthasterias glacialis CDK1/cyclin-B assessed as [gamma-33P]ATP incorporation after 10 mins by scintillation counting.
Assay [4] is described as follows: Inhibition of porcine brain CK1 assessed as [gamma-33P]ATP incorporation after 10 mins by scintillation counting. On the set-up: species or system Sus scrofa.
The target of assay [5] is Dual specificity tyrosine-phosphorylation-regulated kinase 1A (Rattus norvegicus, UniProt Q63470). Description: Inhibition of GST-fused rat recombinant DYRK1A expressed in Escherichia coli assessed as [gamma-33P]ATP incorporation after 10 mins by scintillation counting.
Assay [6] is described as follows: Antiproliferative activity against human NCI/ADR cells after 72 hrs by imaging analysis. Type of assay: functional, cell-based. To be noted: NCI/ADR-RES.
Assay [7] in a line: Antiproliferative activity against human fibroblast after 72 hrs by imaging analysis. Type of assay: cell-based.
The subject of another assay is Huh-7. As to the kind of experiment: Antiproliferative activity against human HuH7 cells after 72 hrs by imaging analysis. The conditions noted are these: Huh-7, 72 h. Type of assay: functional, cell-based.
In another assay the test system is HCT-116. Description: Antiproliferative activity against human HCT116 cells after 72 hrs by imaging analysis. The conditions noted are these: HCT-116, 72 h. Type of assay: functional, cell-based.
The next assay concerns PC-3. Description: Antiproliferative activity against human PC3 cells after 72 hrs by imaging analysis. Type of assay: functional, cell-based. The conditions noted are these: PC-3, 72 h.
The next assay relates to Caco-2. Description: Antiproliferative activity against human Caco-2 cells after 72 hrs by imaging analysis. Type of assay: functional, cell-based. The conditions noted are these: Caco-2, 72 h.

SMILES strings stand for the structures.

Chain of Cyclin-dependent kinase 5/CDK5 activator 1 (Q00535 whole entry, the tested form may be a part): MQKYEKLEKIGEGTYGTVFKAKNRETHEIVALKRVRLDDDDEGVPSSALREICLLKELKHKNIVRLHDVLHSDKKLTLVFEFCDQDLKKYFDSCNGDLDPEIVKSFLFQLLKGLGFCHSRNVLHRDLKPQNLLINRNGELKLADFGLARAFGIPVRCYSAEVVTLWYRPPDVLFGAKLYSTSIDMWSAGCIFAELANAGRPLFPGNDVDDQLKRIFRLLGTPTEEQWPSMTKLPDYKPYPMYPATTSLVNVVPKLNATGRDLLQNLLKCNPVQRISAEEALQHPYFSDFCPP
Chain of Cyclin-dependent kinase 5/CDK5 activator 1 (Q15078 whole entry, further chain, the tested form may be a part): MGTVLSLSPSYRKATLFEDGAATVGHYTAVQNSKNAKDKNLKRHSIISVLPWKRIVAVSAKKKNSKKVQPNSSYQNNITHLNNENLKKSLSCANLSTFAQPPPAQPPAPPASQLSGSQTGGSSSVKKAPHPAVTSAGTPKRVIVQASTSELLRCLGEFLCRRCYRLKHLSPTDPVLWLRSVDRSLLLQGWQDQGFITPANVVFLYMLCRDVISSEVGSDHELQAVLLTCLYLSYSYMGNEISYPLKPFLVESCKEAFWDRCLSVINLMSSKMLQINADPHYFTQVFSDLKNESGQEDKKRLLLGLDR

`O=C1Nc2c(Br)cc([N+](=O)[O-])cc2/C1=C1/Nc2ccc(Br)cc2C1=O`: the half-inhibitory concentration (IC50) in assay [1], in assay [2], in assay [3], in assay [4] and in [5] was > 10 µM throughout.

As for `CC[C@H](CO)Nc1nc(NCc2ccccc2)c2ncn(C(C)C)c2n1` [SELICICLIB], the half-inhibitory concentration (IC50) was 6 µM in assay [6]; > 25 µM in [7]; 5 µM with Huh-7; 5 µM with HCT-116; 8 µM in the assay on PC-3.

Consider `Nc1ccc2c(c1)/C(=C1/Nc3ccc(Br)cc3C1=O)C(=O)N2`, for which the concentration for half-maximal inhibition (IC50) in assay [1] is 0.55 µM; in assay [2], 0.44 µM; in assay [3], 0.6 µM; in [4], 2.7 µM; in [5], > 10 µM.

For the compound `CC(=O)Nc1ccc2c(c1)/C(=C1/Nc3ccc(Br)cc3C1=O)C(=O)N2`, the IC50 is 0.11 µM in [1]; 0.073 µM in assay [2]; 0.055 µM in assay [3]; > 10 µM in assay [4]; 7.3 µM in assay [5].

For `Nc1ccc2c(c1)NC(=O)/C2=C1\Nc2ccccc2\C1=N/O`, the IC50 turned out to be 0.2 µM in assay [1], 0.18 µM in [2], 1 µM in assay [3] and 0.5 µM in [4].

In the case of `O=C1Nc2ccc([N+](=O)[O-])cc2/C1=C1/Nc2ccc(Br)cc2C1=O`, the half-maximal inhibitory concentration (IC50) in assay [1], in assay [2], in assay [3], in [4] and in [5] was > 10 µM throughout.

`O=C1Nc2cc([N+](=O)[O-])ccc2/C1=C1/Nc2ccccc2C1=O`: the half-maximal inhibitory concentration (IC50) in assay [1] was > 10 µM; with Caco-2 it was 3 µM; in assay [2], 60 µM; in assay [6], 2 µM; in assay [7], > 25 µM; in assay [3], > 10 µM. Besides, the 50% inhibitory concentration (IC50) is > 10 µM in assay [4], > 25 µM in the assay with Huh-7, 5 µM with HCT-116 and 15 µM with PC-3.

As for `CC(=O)Nc1ccc2c(c1)/C(=C1/Nc3ccc(Br)cc3/C1=N\O)C(=O)N2`, the IC50 in [1] was 3.3 µM; in assay [2], 40 µM; in assay [3], 1.4 µM; in assay [4] it was > 10 µM; in [5], > 10 µM.

In the case of `O=C1Nc2cc([N+](=O)[O-])ccc2/C1=C1/Nc2ccc(Br)cc2C1=O`, the half-maximal inhibitory concentration (IC50) in [1], in [2], in [3] and in assay [4] was > 10 µM throughout.

For the compound `CC(=O)Nc1ccc2c(c1)/C(=C1/Nc3ccccc3/C1=N\O)C(=O)N2`, the 50% inhibitory concentration (IC50) in assay [1] is 0.16 µM; in assay [2], 0.35 µM; in assay [3], 0.088 µM; in assay [4] it was 0.4 µM; in assay [5] it was 15 µM.

With `Nc1ccc2c(c1)/C(=C1/Nc3ccccc3/C1=N\O)C(=O)N2`, the IC50 in [1] turned out to be 0.15 µM; in [2], 0.36 µM; in assay [3] it was 0.1 µM; in [4] it was 0.13 µM; in assay [5], 4.2 µM.

Regarding `O=C1Nc2c(Br)cc([N+](=O)[O-])cc2/C1=C1/Nc2ccccc2C1=O`, the IC50 in [1], in [2], in [3], in assay [4] and in assay [5] was > 10 µM in each case.

`O=C1Nc2c(Br)cc([N+](=O)[O-])cc2/C1=C1/Nc2ccccc2/C1=N\O`: the IC50 in assay [1], in [2], in assay [3], in assay [4] and in [5] was > 10 µM throughout.

On to `CC(=O)Nc1ccc2c(c1)/C(=C1/Nc3ccccc3C1=O)C(=O)N2`, for which the concentration for half-maximal inhibition (IC50) is 0.018 µM in [1]; 5 µM with Caco-2; 0.0075 µM in [2]; 10 µM in assay [6]; > 25 µM in assay [7]; 0.05 µM in [3]. In addition, the IC50 is 8 µM in assay [4]; 2.5 µM in assay [5]; 2 µM in the assay with Huh-7; 2 µM in the assay with HCT-116; 2 µM in the assay with PC-3.

Consider `Nc1ccc2c(c1)/C(=C1/Nc3ccc(Br)cc3/C1=N\O)C(=O)N2`, for which the half-maximal inhibitory concentration (IC50) in assay [1] is 1 µM; in [2], 6.6 µM; in [3] it was 0.41 µM; in [4] it was > 10 µM; in assay [5], > 10 µM.

For `O=C1Nc2cc([N+](=O)[O-])ccc2/C1=C1/Nc2ccc(Br)cc2/C1=N\O`, the half-inhibitory concentration (IC50) in assay [1] was determined as 0.3 µM; in assay [2], 0.7 µM; in assay [3], 7 µM; in [4], 18 µM.

For the compound `Nc1ccc2c(c1)NC(=O)/C2=C1\Nc2ccccc2C1=O`, the half-maximal inhibitory concentration (IC50) in assay [1] is 4 µM; in the assay on Caco-2 it was 5 µM; in assay [2], 0.36 µM; in assay [6] it was 25 µM; in [7] it was > 25 µM; in assay [3], 30 µM. Also, the IC50 in assay [4] was 16 µM; with Huh-7, > 25 µM; in the assay on HCT-116, > 25 µM; in the assay with PC-3, 25 µM.

Turning to `O=C1Nc2ccc([N+](=O)[O-])cc2/C1=C1/Nc2ccc(Br)cc2/C1=N/O`, the half-maximal inhibitory concentration (IC50) in assay [1] was 0.05 µM; in assay [2], 0.055 µM; in assay [3] it was 0.16 µM; in assay [4] it was > 10 µM; in assay [5] it was > 10 µM.

Take `CC(=O)O[C@H]1C(=O)[C@@]2(C)[C@H]([C@H](OC(=O)c3ccccc3)[C@]3(O)C[C@H](OC(=O)[C@H](O)[C@@H](NC(=O)c4ccccc4)c4ccccc4)C(C)=C1C3(C)C)[C@]1(OC(C)=O)CO[C@@H]1C[C@@H]2O` [PACLITAXEL]: the IC50 in the assay with Caco-2 is 0.02 µM; in assay [6], 0.004 µM; in assay [7], 0.03 µM; in the assay on Huh-7, 0.008 µM; in the assay with HCT-116, < 0.0008 µM; in the assay on PC-3 it was < 0.0008 µM.

Consider `O=Nc1c(-c2c(O)[nH]c3ccc([N+](=O)[O-])cc23)[nH]c2ccccc12`, for which the IC50 is 0.006 µM in [1]; 0.0021 µM in assay [2]; 0.019 µM in assay [3]; > 10 µM in assay [4]; 1.3 µM in assay [5].

For `O=C1Nc2c(Br)cc([N+](=O)[O-])cc2/C1=C1/Nc2ccc(Br)cc2/C1=N\O`, the IC50 in [1], in assay [2], in assay [3], in assay [4] and in assay [5] was > 10 µM in each case.

Consider `O=C1Nc2ccccc2/C1=C1\C(=O)Nc2ccc([N+](=O)[O-])cc21`, for which the IC50 in the assay with Caco-2 is > 25 µM; in assay [6] it was 25 µM; in assay [7], > 25 µM; in the assay with Huh-7, > 25 µM; in the assay on HCT-116, > 25 µM; in the assay on PC-3, > 25 µM.

For the compound `Nc1ccc2c(c1)/C(=C1\C(=O)Nc3ccccc31)C(=O)N2` [(3'Z)-5-AMINOISOINDIGO], the IC50 in the assay with Caco-2 was > 25 µM; in [6], 25 µM; in assay [7] it was > 25 µM; in the assay with Huh-7, > 25 µM; in the assay on HCT-116 it was > 25 µM; in the assay with PC-3, 25 µM.

In the case of `Nc1ccc2c(c1)/C(=C1/Nc3ccccc3C1=O)C(=O)N2`, the IC50 in assay [1] was 0.59 µM; in the assay with Caco-2, 2 µM; in assay [2] it was 0.08 µM; in assay [6], 20 µM; in assay [7] it was > 25 µM; in [3], 1.5 µM. The IC50 in [4] amounted to 0.65 µM; in assay [5] it was 2.5 µM; with Huh-7 it was 6 µM; in the assay with HCT-116, 15 µM; in the assay with PC-3, 5 µM.

In the case of `O=C1C(c2c(O)[nH]c3ccc([N+](=O)[O-])cc23)=Nc2ccccc21`, the IC50 in assay [1] was 25 µM; in [2], 19 µM; in [3] it was 40 µM; in assay [4], > 10 µM; in assay [5] it was > 10 µM.

Consider `O=C1Nc2cc([N+](=O)[O-])ccc2/C1=C1/Nc2ccccc2/C1=N\O`, for which the IC50 in assay [1] worked out at 0.12 µM; in assay [2], 0.04 µM; in assay [3], 0.18 µM; in assay [4], 0.6 µM.
